The results in this text go back to patent US8946421B2, “Lipidated imidazoquinoline derivatives” (GlaxoSmithKline Biologicals S.A., priority 2008, dated 2015).

What all share (assay type): in vivo
Assay [1] has as its system C57BL/6 (H2Kb), female mice. Kind of assay: p27-specific CD8 response, intracellular cytokine staining of PBLs after vaccination. The note with it: 7 days after the second immunization; co-administered with MPL and QS-21 formulations; vs control formulation without TLR7/8L; intramuscular; FIG. 2. The method, then: (§1) Formulation of the compounds for a comparison study requires taking into account the different molecular weights of the core and lipidated molecules, (e.g. 45 and 4.5 μg of the lipidated compound L3 corresponds to approximately to 15 and 1.5 μg of the corresponding core compound, “L3 core”), allowing for the side by side comparison of the corresponding groups in the study. Higher doses of L3 (200 μg) and of L3 core (150 μg) are also tested. In one such study formulations summarized and described below (table 1) are used to vaccinate 6-8 week old C57BL/6 (H2Kb), female mice (10/group). The mice receive two injections 14 days apart and are bled during weeks 1, 3 and 4 (for precise bleed days see FIG. 1). The mice are vaccinated intramuscularly. A heterologous prime/boost using recombinant adenovirus coding for the SIV-p27 protein and adjuvanted p27 are used as control groups, the adenovirus is injected at a dose of 5×10^8 VP. The study design is represented in FIG. 1. […]
(§2) The induction of antigen-specific CD8 and CD4 responses is assessed by measuring intracellular cytokines 7 days after the second injection. […] The secretion of cytokines is blocked by Brefeldin A and the presence of 3 cytokines (IFNγ, TNFα and IL2) is evaluated by flow cytometry after intracellular staining with appropriate antibodies.

Assay [2] has as its system C57BL/6 (H2Kb), female mice. Kind of assay: antigen-specific CD4 T cell response, intracellular cytokine staining of PBLs after vaccination. To be noted: liposome-based MPL and QS-21-containing formulation; vs control formulation; dose dependent; FIG. 4. As to the method:
as §1, §2

Assay [3] relates to C57BL/6 (H2Kb), female mice. Kind of assay: serum cytokine response after first injection. To be noted: sera of mice 3 and 24 hrs after the first injection. As to the method:
Formulation of the compounds for a comparison study requires taking into account the different molecular weights of the core and lipidated molecules, (e.g. 45 and 4.5 μg of the lipidated compound L3 corresponds to approximately to 15 and 1.5 μg of the corresponding core compound, “L3 core”), allowing for the side by side comparison of the corresponding groups in the study. Higher doses of L3 (200 μg) and of L3 core (150 μg) are also tested. In one such study formulations summarized and described below (table 1) are used to vaccinate 6-8 week old C57BL/6 (H2Kb), female mice (10/group). The mice receive two injections 14 days apart and are bled during weeks 1, 3 and 4 (for precise bleed days see FIG. 1). The mice are vaccinated intramuscularly. A heterologous prime/boost using recombinant adenovirus coding for the SIV-p27 protein and adjuvanted p27 are used as control groups, the adenovirus is injected at a dose of 5×10^8 VP. The study design is represented in FIG. 1.
Additional investigation illustrates the ability of lipidated TLR7/8 compounds to induce innate chemokines and pro-inflammatory cytokines among which type I IFN is known to be required for the programming of naïve CD8-T-cell (survival, differentiate and memory development). These cytokines are measured in the sera of mice 3 and 24 hrs after the first injection (FIGS. 5 and 6).

As to `CCCCCCCCCCCCCCCC(=O)OC[C@H](COP(=O)(O)OCCn1c(COCC)nc2c(N)nc3ccccc3c21)OC(=O)CCCCCCCCCCCCCCC` [Compound L3, 4-Amino-1-[2-(1,2-dipalmitoyl-sn-glycero-3-phospho)ethyl]-2-ethoxymethyl-1H-imidazo[4,5-c]quinoline], in assay [1], the “p27-specific CD8 frequency” value is “clearly increased”. Moreover, the “p27-specific CD4 frequency” value in assay [2] is “increased”. In assay [3] (added to QS21 and MPL), the IL-6 in serum entry was “enhanced” and the TNFα in serum result is listed as “enhanced”. In assay [3] (with QS21 and MPL), the “IL-12p70 production in serum” value is reported as “Low IL-12p70 production, close to background level” and the “Level of INFγ in serum” value was “increased at low dose”. Further, the IFNα in serum entry in assay [3] (with QS21 and MPL, FIGS. 5 and 6) was “in a dose-dependent manner and at higher level than for its core counterpart”.
